Experimental data: the supplement of paper PMC10307832

Experiments:
Test in all cases: relative viability (nuclei count vs DMSO), 5 days (fraction); higher = more cells survive
Vorinostat = compound: O=C(CCCCCCC(=O)Nc1ccccc1)NO [Vorinostat]
Method in brief: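 Lung cancer cell lines were seeded into 1536-well plates, kept overnight at 37 °C and pinned with five library-drug doses (not always all listed) spaced by √10. After 5 days, nuclei were Hoechst-stained, imaged at 4× and counted with MetaXpress. Viability is treated-well nuclei over vehicle-well nuclei, taken as a median across plates. Plates needed control CV below 25% and at least one doubling.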

Vorinostat + Bortezomib = compound: O=C(CCCCCCC(=O)Nc1ccccc1)NO [Vorinostat] + CC(C)C[C@H](NC(=O)[C@H](Cc1ccccc1)NC(=O)c1cnccn1)B(O)O [Bortezomib] (partner 0.002 µM)
Method in brief: (§1)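 Values are medians from duplicate plates. Each reflects relative viability, defined as the nuclei count of treated wells over that of vehicle wells. Lung cancer cell lines in 1536-well plates were pin-tool dosed one day after seeding with one drug alone or with a fixed anchor-drug dose plus five library-drug doses (not always all listed) in √10 steps, then fixed, stained and imaged at 4× after 5 days.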

Vorinostat + Navitoclax = compound: O=C(CCCCCCC(=O)Nc1ccccc1)NO [Vorinostat] + CC1(C)CCC(c2ccc(Cl)cc2)=C(CN2CCN(c3ccc(C(=O)NS(=O)(=O)c4ccc(N[C@H](CCN5CCOCC5)CSc5ccccc5)c(S(=O)(=O)C(F)(F)F)c4)cc3)CC2)C1 [Navitoclax] (partner 0.5 µM)
Method in brief: as §1

Vorinostat + Foretinib = compound: O=C(CCCCCCC(=O)Nc1ccccc1)NO [Vorinostat] + COc1cc2c(Oc3ccc(NC(=O)C4(C(=O)Nc5ccc(F)cc5)CC4)cc3F)ccnc2cc1OCCCN1CCOCC1 [Foretinib] (partner 0.25 µM)
Method in brief: as §1

Vorinostat + Lapatinib = compound: O=C(CCCCCCC(=O)Nc1ccccc1)NO [Vorinostat] + CS(=O)(=O)CCNCc1ccc(-c2ccc3ncnc(Nc4ccc(OCc5cccc(F)c5)c(Cl)c4)c3c2)o1 [Lapatinib] (partner 2 µM)
Method in brief: as §1

Vorinostat + Pictilisib = compound: O=C(CCCCCCC(=O)Nc1ccccc1)NO [Vorinostat] + CS(=O)(=O)N1CCN(Cc2cc3nc(-c4cccc5[nH]ncc45)nc(N4CCOCC4)c3s2)CC1 [Pictilisib] (partner 1 µM)
Method in brief: as §1

Vorinostat + Crizotinib = compound: O=C(CCCCCCC(=O)Nc1ccccc1)NO [Vorinostat] + C[C@@H](Oc1cc(-c2cnn(C3CCNCC3)c2)cnc1N)c1c(Cl)ccc(F)c1Cl [Crizotinib] (partner 1 µM)
Method in brief: as §1

Vorinostat + Linsitinib = compound: O=C(CCCCCCC(=O)Nc1ccccc1)NO [Vorinostat] + C[C@]1(O)C[C@@H](c2nc(-c3ccc4ccc(-c5ccccc5)nc4c3)c3c(N)nccn32)C1 [Linsitinib] (partner 1 µM)
Method in brief: as §1

Vorinostat + Alpelisib = compound: O=C(CCCCCCC(=O)Nc1ccccc1)NO [Vorinostat] + Cc1nc(NC(=O)N2CCC[C@H]2C(N)=O)sc1-c1ccnc(C(C)(C)C(F)(F)F)c1 [Alpelisib] (partner 2 µM)
Method in brief: as §1

Vorinostat + Olaparib = compound: O=C(CCCCCCC(=O)Nc1ccccc1)NO [Vorinostat] + O=C(c1cc(Cc2n[nH]c(=O)c3ccccc23)ccc1F)N1CCN(C(=O)C2CC2)CC1 [Olaparib] (partner 8 µM)
Method in brief: as §1

Row | Cell Line | relative viability (Vorinostat; 0.253 µM) | relative viability (Vorinostat; 0.8 µM) | relative viability (Vorinostat; 2.53 µM) | relative viability (Vorinostat; 8 µM) | relative viability (Vorinostat + Bortezomib; first compound 0.253 µM) | relative viability (Vorinostat + Bortezomib; first compound 0.8 µM) | relative viability (Vorinostat + Bortezomib; first compound 2.53 µM) | relative viability (Vorinostat + Bortezomib; first compound 8 µM) | relative viability (Vorinostat + Navitoclax; first compound 0.253 µM) | relative viability (Vorinostat + Navitoclax; first compound 0.8 µM) | relative viability (Vorinostat + Navitoclax; first compound 2.53 µM) | relative viability (Vorinostat + Navitoclax; first compound 8 µM) | relative viability (Vorinostat + Foretinib; first compound 0.253 µM) | relative viability (Vorinostat + Foretinib; first compound 0.8 µM) | relative viability (Vorinostat + Foretinib; first compound 2.53 µM) | relative viability (Vorinostat + Foretinib; first compound 8 µM) | relative viability (Vorinostat + Lapatinib; first compound 0.253 µM) | relative viability (Vorinostat + Lapatinib; first compound 0.8 µM) | relative viability (Vorinostat + Lapatinib; first compound 2.53 µM) | relative viability (Vorinostat + Lapatinib; first compound 8 µM) | relative viability (Vorinostat + Pictilisib; first compound 0.253 µM) | relative viability (Vorinostat + Pictilisib; first compound 0.8 µM) | relative viability (Vorinostat + Pictilisib; first compound 2.53 µM) | relative viability (Vorinostat + Pictilisib; first compound 8 µM) | relative viability (Vorinostat + Crizotinib; first compound 0.253 µM) | relative viability (Vorinostat + Crizotinib; first compound 0.8 µM) | relative viability (Vorinostat + Crizotinib; first compound 2.53 µM) | relative viability (Vorinostat + Crizotinib; first compound 8 µM) | relative viability (Vorinostat + Linsitinib; first compound 0.253 µM) | relative viability (Vorinostat + Linsitinib; first compound 0.8 µM) | relative viability (Vorinostat + Linsitinib; first compound 2.53 µM) | relative viability (Vorinostat + Linsitinib; first compound 8 µM) | relative viability (Vorinostat + Alpelisib; first compound 0.253 µM) | relative viability (Vorinostat + Alpelisib; first compound 0.8 µM) | relative viability (Vorinostat + Alpelisib; first compound 2.53 µM) | relative viability (Vorinostat + Alpelisib; first compound 8 µM) | relative viability (Vorinostat + Olaparib; first compound 0.253 µM) | relative viability (Vorinostat + Olaparib; first compound 0.8 µM) | relative viability (Vorinostat + Olaparib; first compound 2.53 µM) | relative viability (Vorinostat + Olaparib; first compound 8 µM)
1 | Calu-6 | 1.07 | 0.894 | 0.361 | 0.0946 | 0.917 | 0.864 | 0.434 | 0.127 | 0.849 | 0.761 | 0.212 | 0.0656 | 0.975 | 0.728 | 0.183 | 0.0381 | 1.12 | 0.876 | 0.416 | 0.107 | 1.11 | 0.838 | 0.238 | 0.0615 | 0.745 | 0.5 | 0.153 | 0.0713 | 0.995 | 0.868 | 0.293 | 0.0756 | 1.25 | 0.917 | 0.302 | 0.0879 | 0.527 | 0.377 | 0.169 | 0.078
2 | EBC-1 | 0.913 | 0.654 | 0.222 | 0.0742 | 0.376 | 0.325 | 0.124 | 0.0971 | 0.376 | 0.215 | 0.126 | 0.114 | 0.117 | 0.101 | 0.0655 | 0.044 | 0.243 | 0.209 | 0.164 | 0.124 | 0.32 | 0.203 | 0.1 | 0.0715 | 0.207 | 0.224 | 0.169 | 0.118 | 0.838 | 0.458 | 0.134 | 0.0589 | 0.675 | 0.65 | 0.143 | 0.0927 | 0.681 | 0.476 | 0.193 | 0.0767
